{"source": "ChEMBL document CHEMBL6096723", "about": "“Discovery of novel capsaicin analogs as TRPV1 inhibitors for the treatment of idiopathic pulmonary fibrosis” (Eur J Med Chem, 2025)", "key": {"NIH3T3 [1]": {"test_system": "NIH3T3", "assay": "Antifibrotic activity in mouse NIH3T3 cells assessed as decrease in TRPV1 expression measured after 48 hrs incubation by Western blotting analysis", "format": "functional, cell-based", "details": "dose 1-10 µM"}, "[2]": {"biological_target": "Transient receptor potential cation channel subfamily V member 1 (Homo sapiens) (UniProt Q8NER1)", "sequence (Q8NER1 whole entry)": "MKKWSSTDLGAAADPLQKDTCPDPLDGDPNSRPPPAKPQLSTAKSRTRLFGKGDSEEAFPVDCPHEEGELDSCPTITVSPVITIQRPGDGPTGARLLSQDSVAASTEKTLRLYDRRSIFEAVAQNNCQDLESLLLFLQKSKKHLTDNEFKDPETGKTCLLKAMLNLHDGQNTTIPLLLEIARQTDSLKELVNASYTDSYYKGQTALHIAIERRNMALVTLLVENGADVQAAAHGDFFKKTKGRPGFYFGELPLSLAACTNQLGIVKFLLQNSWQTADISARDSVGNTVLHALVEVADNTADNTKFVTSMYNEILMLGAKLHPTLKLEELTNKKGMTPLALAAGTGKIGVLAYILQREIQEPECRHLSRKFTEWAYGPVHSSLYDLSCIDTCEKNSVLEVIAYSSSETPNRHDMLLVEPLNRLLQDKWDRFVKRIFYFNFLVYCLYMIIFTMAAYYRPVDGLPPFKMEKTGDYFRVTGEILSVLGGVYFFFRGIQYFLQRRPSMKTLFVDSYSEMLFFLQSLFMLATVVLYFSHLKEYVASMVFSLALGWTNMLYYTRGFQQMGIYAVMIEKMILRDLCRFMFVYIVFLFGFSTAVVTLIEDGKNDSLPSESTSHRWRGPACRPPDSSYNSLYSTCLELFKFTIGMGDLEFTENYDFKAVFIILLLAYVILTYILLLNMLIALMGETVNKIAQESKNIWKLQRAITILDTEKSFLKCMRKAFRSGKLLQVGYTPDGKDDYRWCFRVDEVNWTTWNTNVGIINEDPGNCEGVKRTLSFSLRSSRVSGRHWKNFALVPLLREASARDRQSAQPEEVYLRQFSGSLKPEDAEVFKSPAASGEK", "assay": "Inhibition of TRPV1 (unknown origin) overexpressed in HEK-293T cells assessed as decrease in TGFbeta-induced alpha-SMA expression at 10 uM measured after 48 hrs incubation by Western blotting analysis", "format": "cell-based"}, "[3]": {"biological_target": "Transient receptor potential cation channel subfamily V member 1 (Homo sapiens) (UniProt Q8NER1)", "assay": "Inhibition of TRPV1 (unknown origin) overexpressed in si-TRPV1-2 transfected HEK-293T cells assessed as decrease in TGFbeta-induced alpha-SMA expression at 10 uM measured after 48 hrs incubation by Western blotting analysis", "format": "cell-based"}, "NIH3T3 [4]": {"test_system": "NIH3T3", "assay": "Inhibition of TGFbeta-induced Smad2 phosphorylation in mouse NIH3T3 cells by Western blot analysis", "format": "functional, cell-based", "details": "dose 1-10 µM"}, "NIH3T3 [5]": {"test_system": "NIH3T3", "assay": "Inhibition of TGFbeta-induced Smad3 phosphorylation in mouse NIH3T3 cells by Western blot analysis", "format": "functional, cell-based", "details": "dose 1-10 µM"}, "NIH3T3 [6]": {"test_system": "NIH3T3", "assay": "Inhibition of TGFbeta-induced JNK phosphorylation in mouse NIH3T3 cells at 1 to 10 uM by Western blot analysis", "format": "functional, cell-based", "details": "dose 1-10 µM"}, "[7]": {"assay": "Acute toxicity in Kunming female mouse assessed as Alanine aminotransferase (ALT) level at 180 mg/kg, ip measured after 14 days (reference value: 33.7 U/L)", "format": "organism-based", "details": "in vivo, 336 h, time 14 day"}, "[8]": {"assay": "Acute toxicity in Kunming female mouse assessed as Direct bilirubin (D-Bil) level at 180 mg/kg, ip measured after 14 days (reference value: 3.37 micromol/L)", "format": "organism-based", "details": "in vivo, 336 h, time 14 day"}, "[9]": {"assay": "Acute toxicity in Kunming female mouse assessed as Urea level at 180 mg/kg, ip measured after 14 days (reference value: 5.74 mmol/L)", "format": "organism-based", "details": "in vivo, 336 h, time 14 day"}, "[10]": {"assay": "Acute toxicity in Kunming female mouse assessed as Uric acid (UA) level at 180 mg/kg, ip measured after 14 days (reference value: 252.2 micromol/L)", "format": "organism-based", "details": "in vivo, 336 h, time 14 day"}, "[11]": {"assay": "Acute toxicity in Kunming female mouse assessed as Lactate dehydrogenase (LDH) level at 180 mg/kg, ip measured after 14 days (reference value: 1952.7 U/L)", "format": "organism-based", "details": "in vivo, 336 h, time 14 day"}, "[12]": {"assay": "VRT(0 to infinity) in Sprague-Dawley rat at 50 mg/kg, po measured upto 4 hrs by UPLC-MS/MS analysis", "format": "ADME, organism-based", "details": "in vivo"}, "[13]": {"assay": "Half life in Sprague-Dawley rat at 50 mg/kg, po measured upto 4 hrs by UPLC-MS/MS analysis", "format": "ADME, organism-based", "details": "in vivo"}, "[14]": {"assay": "Clearance in Sprague-Dawley rat at 50 mg/kg, po measured upto 4 hrs by UPLC-MS/MS analysis", "format": "ADME, organism-based", "details": "in vivo"}, "[15]": {"assay": "Apparent volume of distribution in Sprague-Dawley rat at 50 mg/kg, po measured upto 4 hrs by UPLC-MS/MS analysis", "format": "ADME, organism-based", "details": "in vivo"}, "[16]": {"assay": "Half life in Sprague-Dawley rat at 50 mg/kg, ip measured upto 4 hrs by UPLC-MS/MS analysis", "format": "ADME, organism-based", "details": "in vivo"}, "[17]": {"assay": "Apparent volume of distribution in Sprague-Dawley rat at 50 mg/kg, ip measured upto 4 hrs by UPLC-MS/MS analysis", "format": "ADME, organism-based", "details": "in vivo"}, "[18]": {"assay": "VRT(0 to t) in Sprague-Dawley rat at 50 mg/kg, iv measured upto 4 hrs by UPLC-MS/MS analysis", "format": "ADME, organism-based", "details": "in vivo"}, "[19]": {"assay": "VRT(0 to infinity) in Sprague-Dawley rat at 50 mg/kg, iv measured upto 4 hrs by UPLC-MS/MS analysis", "format": "ADME, organism-based", "details": "in vivo"}, "Rattus norvegicus": {"test_system": "Rattus norvegicus", "assay": "Cz in Sprague-Dawley rat at 50 mg/kg, iv measured upto 4 hrs by UPLC-MS/MS analysis", "format": "ADME, organism-based", "details": "in vivo"}, "Mus musculus": {"test_system": "Mus musculus", "assay": "Anti-pulmonary fibrotic activity against bleomycin induced pulmonary fibrosis mouse model assessed as reduction in pulmonary fibrosis lesions at 10 to 20 mg/kg, ip administered every alternative day for 8 to 21 days after modeling", "format": "functional, organism-based", "details": "dose 10-20 mg/kg, time 8-21 day"}, "[20]": {"assay": "AUC(0 to t) in Sprague-Dawley rat at 50 mg/kg, po measured upto 4 hrs by UPLC-MS/MS analysis", "format": "ADME, organism-based", "details": "in vivo"}, "[21]": {"assay": "AUC(0 to infinity) in Sprague-Dawley rat at 50 mg/kg, po measured upto 4 hrs by UPLC-MS/MS analysis", "format": "ADME, organism-based", "details": "in vivo"}, "[22]": {"assay": "AUMC(0 to infinity) in Sprague-Dawley rat at 50 mg/kg, po measured upto 4 hrs by UPLC-MS/MS analysis", "format": "ADME, organism-based", "details": "in vivo"}, "[23]": {"assay": "AUC(0 to infinity) in Sprague-Dawley rat at 50 mg/kg, iv measured upto 4 hrs by UPLC-MS/MS analysis", "format": "ADME, organism-based", "details": "in vivo"}}, "note": "Active and inactive are the calls of the source. No cut-off for these calls is given here.", "data": [{"molecule": "O=C(/C=C/c1ccc(O)c(O)c1)CCCCc1ccccc1", "values": [{"measurement": "Activity", "setting": "NIH3T3 [1]", "value": "Dose-dependent-effect; Compound More Potent Than Nintedanib"}, {"measurement": "inhibition", "setting": "[2]", "value": "Active"}, {"measurement": "inhibition", "setting": "[3]", "value": "inactive"}, {"measurement": "inhibition", "setting": "NIH3T3 [4]", "value": "Dose-dependent-effect; Compound Showed Superior Inhibition Effect Than Nintedanib"}, {"measurement": "inhibition", "setting": "NIH3T3 [5]", "value": "Dose-dependent-effect; Compound Showed Superior Inhibition Effect Than Nintedanib"}, {"measurement": "inhibition", "setting": "NIH3T3 [6]", "value": "Active"}, {"measurement": "Activity", "setting": "[7]", "value": 40.1, "unit": "U/L"}, {"measurement": "Activity", "setting": "[8]", "value": 1.02, "unit": "µmol/L"}, {"measurement": "Activity", "setting": "[9]", "value": 6.51, "unit": "mmol/L"}, {"measurement": "Activity", "setting": "[10]", "value": 345.6, "unit": "µmol/L"}, {"measurement": "Activity", "setting": "[11]", "value": 2798.2, "unit": "U/L"}, {"measurement": "VRT", "setting": "[12]", "value": 1.28, "unit": "hr2"}, {"measurement": "half-life", "setting": "[13]", "value": 51, "unit": "min"}, {"measurement": "CL", "setting": "[14]", "value": 197.26, "unit": "L/h/kg"}, {"measurement": "Vz", "setting": "[15]", "value": 237.78, "unit": "L/kg"}, {"measurement": "half-life", "setting": "[16]", "value": 21, "unit": "min"}, {"measurement": "Vz", "setting": "[17]", "value": 9.28, "unit": "L/kg"}, {"measurement": "VRT(t)", "setting": "[18]", "value": 0.569, "unit": "hr2"}, {"measurement": "VRT", "setting": "[19]", "value": 0.779, "unit": "hr2"}, {"measurement": "Cz", "setting": "Rattus norvegicus", "value": 31.67, "unit": "µg/L"}, {"measurement": "Activity", "setting": "Mus musculus", "value": "Active"}, {"measurement": "AUC(0-t) at 4 h", "setting": "[20]", "value": 99, "unit": "ng·h/mL"}, {"measurement": "AUC", "setting": "[21]", "value": 102.37, "unit": "ng·h/mL"}, {"measurement": "AUMC", "setting": "[22]", "value": 138.748, "unit": "ug/L.hr"}, {"measurement": "AUC", "setting": "[23]", "value": 2670.601, "unit": "ng·h/mL"}]}]}
